Read-outs that look alike come from different tables or passages of the source.
Assays:
[1] = biological target: T1, full-length beta-Catenin (Uniprot ID P35222) (Homo sapiens, UniProt P35222); test: Fluorescence polarization IC50 (beta-catenin / 5FAM-TCF4 10-53 competition); type: binding; details: fluorescence polarization; read-out: beta-Catenin FP IC50
T1 construct: 10 nM full-length beta-Catenin (Uniprot ID P35222)
T1 sequence (P35222 1-781): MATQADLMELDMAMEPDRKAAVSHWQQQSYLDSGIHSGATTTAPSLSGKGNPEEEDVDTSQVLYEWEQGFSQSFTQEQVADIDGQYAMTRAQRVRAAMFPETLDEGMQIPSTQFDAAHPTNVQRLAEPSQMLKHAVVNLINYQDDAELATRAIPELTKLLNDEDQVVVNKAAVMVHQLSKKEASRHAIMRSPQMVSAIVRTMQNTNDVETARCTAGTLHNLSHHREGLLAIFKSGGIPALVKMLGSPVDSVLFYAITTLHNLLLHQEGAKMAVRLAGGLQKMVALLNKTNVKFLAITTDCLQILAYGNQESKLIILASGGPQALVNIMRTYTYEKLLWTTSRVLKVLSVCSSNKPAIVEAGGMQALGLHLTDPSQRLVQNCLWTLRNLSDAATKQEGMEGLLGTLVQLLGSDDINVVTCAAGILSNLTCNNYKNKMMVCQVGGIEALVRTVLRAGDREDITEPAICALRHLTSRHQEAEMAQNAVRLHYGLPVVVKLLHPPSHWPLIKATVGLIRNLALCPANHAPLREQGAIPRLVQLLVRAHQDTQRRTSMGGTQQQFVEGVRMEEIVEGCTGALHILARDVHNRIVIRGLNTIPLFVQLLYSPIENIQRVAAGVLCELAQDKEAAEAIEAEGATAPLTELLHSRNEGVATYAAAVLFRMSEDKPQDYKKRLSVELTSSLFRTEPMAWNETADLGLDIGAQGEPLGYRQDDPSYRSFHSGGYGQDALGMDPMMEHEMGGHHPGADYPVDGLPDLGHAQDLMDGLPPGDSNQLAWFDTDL

[2] = biological target: T2, beta-catenin/TCF4 engagement (Homo sapiens, UniProt P35222); test: Nano-BRET target engagement assay (B-cat-Halo & TCF4-Luc in HEK293 cells); type: cell-based; details: read-out: NanoBRET Abs IC50
T2 construct: expressed in transfected cells; host or cells: HEK293
T2 sequence (P35222 1-781): T1 sequence (P35222 1-781)

Row | Compound | IC50 [1] [µM] | IC50 ([2]; absolute IC50) [µM] | IC50 [2] [µM]
1 | CC(=O)N1CCC[C@]12CC=CCCCC1(CCCC=CCCCOC(=O)N3CC[C@@](C(=O)N[C@@H](Cc4ccccc4C(F)(F)F)C(=O)N[C@@H](Cc4ccc(F)c(Br)c4)C(=O)N[C@@H](CO)C(N)=O)(C3)NC(=O)[C@H](CC(C)C)NC(=O)[C@H](Cc3ccccc3)NC(=O)[C@H](C)NC(=O)[C@H](C)NC(=O)[C@H](Cc3cccc(C(=O)O)c3)NC(=O)[C@H](CC(=O)O)NC1=O)NC(=O)[C@H](CC(C)(C)C)NC(=O)[C@H](CC(=O)O)NC2=O (stereo partly drawn) [I-2289, Ac-PL3-Asp-Npg-B5-Asp-3COOHF-Ala-Ala-Phe-Leu-PyrS2-2F3MeF-3Br4FF-Ser-NH2] | 0.008 | 9 | 
2 | CC(=O)N1CCC[C@]12CC=CCCCC1(CCCC=CCCCOC(=O)N3CC[C@@](C(=O)N[C@@H](Cc4ccccc4C(F)(F)F)C(=O)N[C@@H](Cc4c(C(F)(F)F)[nH]c5ccccc45)C(=O)N[C@@H](CCC(N)=O)C(N)=O)(C3)NC(=O)[C@H](CC(C)C)NC(=O)[C@H](Cc3ccccc3)NC(=O)[C@H](C)NC(=O)[C@H](C)NC(=O)[C@H](Cc3cccc(C(=O)O)c3)NC(=O)[C@H](CC(=O)O)NC1=O)NC(=O)[C@H](CC(C)(C)C)NC(=O)[C@H](CC(=O)O)NC2=O (stereo partly drawn) [I-2484, Ac-PL3-Asp-Npg-B5-Asp-3COOHF-Ala-Ala-Phe-Leu-PyrS2-2F3MeF-2F3MeW-Gln-NH2] | 6.29 | > 20 | 
3 | CC(=O)N1CCC[C@]12CC=CC[C@@](C)(C(=O)N[C@@H](CC(=O)O)C(=O)N[C@@H](CC(=O)O)C(=O)N[C@@H](C)C(=O)N[C@@H](C)C(=O)N[C@@H](Cc1ccccc1)C(=O)N[C@@H](CC(C)C)C(=O)NC(C)(C)C(=O)N[C@@H](Cc1ccsc1)C(=O)N[C@@H](Cc1csc3ccccc13)C(=O)N[C@@H](CCC(N)=O)C(N)=O)NC(=O)[C@H](CC(C)(C)C)NC(=O)[C@H](CC(=O)O)NC2=O [I-1980, Ac-PL3-Asp-Npg-S3-Asp-Asp-Ala-Ala-Phe-Leu-Aib-3Thi-BztA-Gln-NH2] | 0.236 |  | > 20
4 | CC(=O)N1CCC[C@]12CC=CCCCC1(CCCC=CCCCCCC[C@@](C)(C(=O)N[C@@H](Cc3ccccc3Cl)C(=O)N[C@@H](Cc3csc4ccccc34)C(=O)N[C@@H](CCC(N)=O)C(N)=O)NC(=O)[C@H](CC(N)=O)NC(=O)[C@H](Cc3ccccc3)NC(=O)[C@H](C)NC(=O)[C@H](C)NC(=O)[C@H](CC(=O)O)NC(=O)[C@H](CC(=O)O)NC1=O)NC(=O)[C@H](CC(C)(C)C)NC(=O)[C@H](CC(=O)O)NC2=O (stereo partly drawn) [I-1394, Ac-PL3-Asp-Npg-B5-Asp-Asp-Ala-Ala-Phe-Asn-S8-2C1F-BztA-Gln-NH2] | 0.009 | 15.9 | 
5 | CC(=O)N1CCC[C@]12CC=CCCCC1(CCCC=CCCCOC(=O)N3CC[C@@](C(=O)N[C@@H](Cc4ccsc4)C(=O)N[C@@H](Cc4csc5ccccc45)C(=O)N[C@@H](CCC(=O)N4CC[C@@H](N(C)C)C4)C(N)=O)(C3)NC(=O)[C@H](CC(C)C)NC(=O)[C@H](Cc3ccccc3)NC(=O)[C@H](C)NC(=O)[C@H](C)NC(=O)[C@H](CN(CC(=O)O)CC(F)(F)F)NC(=O)[C@H](CC(=O)O)NC1=O)NC(=O)[C@H](CC(C)(C)C)NC(=O)[C@H](CC(=O)O)NC2=O (stereo partly drawn) [I-1805, Ac-PL3-Asp-Npg-B5-Asp-TfeGA-Ala-Ala-Phe-Leu-PyrS2-3Thi-BztA-[RDMAPyr]GlnR-NH2] | 0.006 | 9.3 | 
6 | CC(=O)N1CCC[C@]12CC=CCCCC1(CCCC=CCCCOC(=O)N3CC[C@@](C(=O)N[C@@H](Cc4ccsc4)C(=O)N[C@@H](Cc4csc5ccccc45)C(=O)N[C@@H](C)C(N)=O)(C3)NC(=O)[C@H](CC(N)=O)NC(=O)[C@H](Cc3ccccc3)NC(=O)[C@H](C)NC(=O)[C@H](C)NC(=O)[C@H]([C@@H](C)O)NC(=O)[C@H](CC(N)=O)NC1=O)NC(=O)[C@H](CC(C)(C)C)NC(=O)[C@H](CC(=O)O)NC2=O (stereo partly drawn) [I-2142, Ac-PL3-Asp-Npg-B5-Asn-Thr-Ala-Ala-Phe-Asn-PyrS2-3Thi-BztA-Ala-NH2] | 0.271 |  | > 20
